# Reference: ChEMBL document CHEMBL1201862, “PubChem BioAssay data set” (2004)
#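 These data come from cells grown in 96-well plates and exposed to compound for 48 hours at five concentrations. The concentration for 50% growth inhibition is given as GI50.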 The source made the active and inactive calls. Rule as the data show it: active = GI50 up to about 1.1 µM and inactive = higher.
# Experiments:
# Test in all cases: growth of human tumour cells (NCI), 48 h
# HT-29 = system: HT-29
# SK-MEL-28 = system: SK-MEL-28
# SF-268 = system: SF-268
# CCRF-CEM = system: CCRF-CEM
# HOP-92 = system: HOP-92
# SNB-75 = system: SNB-75
# LOX IMVI = system: LOX IMVI
# Malme-3M = system: Malme-3M
# NCI-H23 = system: NCI-H23
# OVCAR-4 = system: OVCAR-4
# SF-295 = system: SF-295
# MDA-N = system: MDA-N
# COLO 205 = system: COLO 205
# T47D = system: T47D
# Hs-578T = system: Hs-578T
# UACC-257 = system: UACC-257
# DU-145 = system: DU-145
# MCF7 = system: MCF7
# SNB-19 = system: SNB-19
# HCC 2998 = system: HCC 2998
SMILES,GI50 (HT-29),GI50 (SK-MEL-28),GI50 (SF-268),GI50 (CCRF-CEM),GI50 (HOP-92),GI50 (SNB-75),GI50 (LOX IMVI),GI50 (Malme-3M),GI50 (NCI-H23),GI50 (OVCAR-4),GI50 (SF-295),GI50 (MDA-N),GI50 (COLO 205),GI50 (T47D),GI50 (Hs-578T),GI50 (UACC-257),GI50 (DU-145),GI50 (MCF7),GI50 (SNB-19),GI50 (HCC 2998)
CCOC(=O)c1nc2c3c(ncn2n1)Oc1c(c(-c2ccccc2)nn1-c1ccccc1)C3c1ccc(Cl)cc1 (stereo not given),> 100 µM (inactive),> 100 µM (inactive),> 100 µM (inactive),> 100 µM (inactive),> 100 µM (inactive),> 100 µM (inactive),> 100 µM (inactive),> 100 µM (inactive),> 100 µM (inactive),> 100 µM (inactive),> 100 µM (inactive),> 100 µM (inactive),> 100 µM (inactive),> 100 µM (inactive),> 100 µM (inactive),> 100 µM (inactive),> 100 µM (inactive),> 100 µM (inactive),> 100 µM (inactive),> 100 µM (inactive)
Cc1cc2c(cc1C)[n+]([O-])c(C(=O)/C=C/c1ccc3c(c1)OCO3)c(C)[n+]2[O-],> 100 µM (inactive),> 100 µM (inactive),29.4 µM (inactive),> 100 µM (inactive),25.6 µM (inactive),19.7 µM (inactive),36.7 µM (inactive),73.1 µM (inactive),38.3 µM (inactive),> 100 µM (inactive),21.1 µM (inactive),> 100 µM (inactive),> 100 µM (inactive),> 86.1 µM (inactive),26.2 µM (inactive),> 88.7 µM (inactive),> 80.5 µM (inactive),> 100 µM (inactive),27.5 µM (inactive),> 78.5 µM (inactive)
CC(NC(=O)OCc1ccccc1)NC(=O)OC(C)(C)C (stereo not given),> 100 µM (inactive),> 100 µM (inactive),> 100 µM (inactive),> 100 µM (inactive),> 100 µM (inactive),> 100 µM (inactive),> 100 µM (inactive),> 100 µM (inactive),> 100 µM (inactive),> 100 µM (inactive),> 100 µM (inactive),> 100 µM (inactive),> 100 µM (inactive),> 100 µM (inactive),> 100 µM (inactive),> 100 µM (inactive),> 100 µM (inactive),> 100 µM (inactive),> 100 µM (inactive),> 100 µM (inactive)
CO/N=C(\C(=O)Nc1cncs1)c1csc(N)n1,> 10 µM (inactive),> 10 µM (inactive),> 10 µM (inactive),> 10 µM (inactive),> 10 µM (inactive),> 10 µM (inactive),> 10 µM (inactive),> 10 µM (inactive),> 10 µM (inactive),> 10 µM (inactive),> 10 µM (inactive),> 10 µM (inactive),> 10 µM (inactive),> 10 µM (inactive),> 10 µM (inactive),> 10 µM (inactive),> 10 µM (inactive),> 10 µM (inactive),> 10 µM (inactive),> 10 µM (inactive)
CC(C)[Si](OC1=CCC[C@H]2NC(=O)[C@@H](Cc3ccccc3)[C@@]12C)(C(C)C)C(C)C,3.43 µM (inactive),4.11 µM (inactive),12.1 µM (inactive),2.85 µM (inactive),2.32 µM (inactive),15.4 µM (inactive),3.03 µM (inactive),12.8 µM (inactive),4.98 µM (inactive),5.25 µM (inactive),4.85 µM (inactive),3.95 µM (inactive),2.33 µM (inactive),2.79 µM (inactive),4.67 µM (inactive),4.54 µM (inactive),10.2 µM (inactive),3.55 µM (inactive),10 µM (inactive),2.18 µM (inactive)
CC(C)[C@@H]1CC[C@@H](C)C[C@H]1OC(=O)/C=C1/C2C=CC(O2)C1C(=O)O[C@@H]1C[C@H](C)CC[C@H]1C(C)C (stereo not given in full),48.5 µM (inactive),> 100 µM (inactive),> 100 µM (inactive),45.5 µM (inactive),> 100 µM (inactive),> 100 µM (inactive),> 100 µM (inactive),> 100 µM (inactive),> 100 µM (inactive),> 100 µM (inactive),65.3 µM (inactive),> 100 µM (inactive),> 100 µM (inactive),45.3 µM (inactive),> 100 µM (inactive),46.2 µM (inactive),> 100 µM (inactive),97.5 µM (inactive),> 100 µM (inactive),13.5 µM (inactive)
CCC1(OC(=O)CN2CCN(CCO)CC2)C(=O)OCc2c1cc1n(c2=O)Cc2cc3ccccc3nc2-1 (stereo not given),0.931 µM (active),3.33 µM (inactive),0.138 µM (active),0.0324 µM (active),1.26 µM (inactive),0.234 µM (active),0.18 µM (active),1.95 µM (inactive),0.167 µM (active),1.77 µM (inactive),0.141 µM (active),1.63 µM (inactive),2.04 µM (inactive),0.212 µM (active),14 µM (inactive),0.771 µM (active),0.0822 µM (active),0.107 µM (active),0.216 µM (active),0.45 µM (active)
C/C(=N\NC(=S)Nc1ccc([N+](=O)[O-])cc1)c1nc2cccnc2[nH]1,0.615 µM (active),0.698 µM (active),0.278 µM (active),0.381 µM (active),1.51 µM (inactive),1.38 µM (inactive),0.442 µM (active),1.36 µM (inactive),0.713 µM (active),0.583 µM (active),0.352 µM (active),1.78 µM (inactive),2.44 µM (inactive),0.693 µM (active),1.27 µM (inactive),0.565 µM (active),1.21 µM (inactive),0.611 µM (active),0.824 µM (active),1.15 µM (inactive)
C=C(C)C(CC=C(C)C)CC12CC(CC=C(C)C)C(C)(C)C(CC=C(C)C)(C(=O)C(Cc3ccc(O)c(O)c3)=C1O)C2=O (stereo not given),> 100 µM (inactive),> 100 µM (inactive),> 100 µM (inactive),59.6 µM (inactive),> 100 µM (inactive),> 100 µM (inactive),> 100 µM (inactive),57.8 µM (inactive),> 100 µM (inactive),> 100 µM (inactive),> 100 µM (inactive),> 100 µM (inactive),> 100 µM (inactive),> 100 µM (inactive),> 100 µM (inactive),> 100 µM (inactive),> 100 µM (inactive),> 100 µM (inactive),> 100 µM (inactive),> 100 µM (inactive)
CC[C@@]1(OP(=O)(O)O)C(=O)OCc2c1cc1n(c2=O)Cc2cc3ccccc3nc2-1,0.319 µM (active),1.22 µM (inactive),0.0486 µM (active),0.00927 µM (active),0.447 µM (active),0.16 µM (active),0.0391 µM (active),1.67 µM (inactive),0.0608 µM (active),1.76 µM (inactive),0.0301 µM (active),0.537 µM (active),0.847 µM (active),0.132 µM (active),> 10 µM (inactive),0.287 µM (active),0.0488 µM (active),0.0358 µM (active),0.0798 µM (active),0.771 µM (active)
CCCC1C(CC)C(NC)C(C#N)(C#N)C1(C#N)C#N (stereo not given),13.6 µM (inactive),30.2 µM (inactive),16.5 µM (inactive),13.1 µM (inactive),14 µM (inactive),10 µM (inactive),16.3 µM (inactive),21.2 µM (inactive),21.4 µM (inactive),28.2 µM (inactive),17.2 µM (inactive),16 µM (inactive),12.8 µM (inactive),14.5 µM (inactive),25.9 µM (inactive),16.7 µM (inactive),14.2 µM (inactive),23.5 µM (inactive),22.5 µM (inactive),18 µM (inactive)
CC1(C)C2CCC(CN)(C2)C1N (stereo not given),> 100 µM (inactive),> 100 µM (inactive),> 100 µM (inactive),> 100 µM (inactive),> 100 µM (inactive),> 54.5 µM (inactive),> 100 µM (inactive),> 100 µM (inactive),> 100 µM (inactive),> 100 µM (inactive),> 100 µM (inactive),> 100 µM (inactive),> 100 µM (inactive),> 100 µM (inactive),> 100 µM (inactive),14.8 µM (inactive),> 100 µM (inactive),> 100 µM (inactive),> 100 µM (inactive),9.42 µM (inactive)
N#CC(C#N)=C1CCCCc2ccc([N+](=O)[O-])cc21,78.9 µM (inactive),> 100 µM (inactive),> 100 µM (inactive),40.5 µM (inactive),> 100 µM (inactive),> 100 µM (inactive),76.2 µM (inactive),> 100 µM (inactive),> 100 µM (inactive),> 100 µM (inactive),> 100 µM (inactive),51.6 µM (inactive),> 100 µM (inactive),46.3 µM (inactive),> 100 µM (inactive),> 100 µM (inactive),> 100 µM (inactive),38.7 µM (inactive),> 100 µM (inactive),> 100 µM (inactive)
O=C1C(c2c(O)[nH]c3ccc(Br)cc23)=Nc2ccccc21,4.28 µM (inactive),29 µM (inactive),9.62 µM (inactive),22.7 µM (inactive),16.6 µM (inactive),11.2 µM (inactive),8.55 µM (inactive),4.91 µM (inactive),12.4 µM (inactive),9.04 µM (inactive),15.5 µM (inactive),14 µM (inactive),5.65 µM (inactive),8.63 µM (inactive),12.9 µM (inactive),24.2 µM (inactive),6.81 µM (inactive),1.76 µM (inactive),13.2 µM (inactive),3.79 µM (inactive)
